# Data from patent US11497210B2, “Compositions and methods for long lasting disinfection” (RHODIA OPERATIONS, priority 2018, dated 2022).
# Legend:
# Enterobacter aerogenes [1] = assay: RSS-12 h residual self-sanitizing test (modified EPA Protocol #01-1A, 3 wear cycles); format: cell-based; details: 150 microliters
# Experimental: In order to substantiate 24 hour long-term sanitization claims with the United States Environmental Protection Agency (EPA), compositions are evaluated with the residual self-sanitization (RSS) method, EPA Protocol #01-1A (https://www.epa.gov/sites/production/files/2015-09/documents/cloroxpcol_final.pdf). For validating longer term disinfection, all extant test protocols emulate the maximum amount of recontamination and abrasion by touching and wiping anticipated before reapplication, typically a 24 hour period. An intermediate protocol with approximately half the level abrasion and re-soiling challenge to a surface is presented here as the “RSS-12 h” test protocol.
# Long lasting disinfection claims are substantiated by the RSS test, which challenges the applied composition by subjecting it to recontamination (re-inoculation with microorganisms) and abrasion (wear cycles). An intermediate test protocol, with approximately half the number of re-inoculations and wear cycles (“RSS-12 h”) is used to predict disinfection that is durable up to 12 hours before reapplication of the test product. As outlined in FIG. 1, this procedure requires preparation of the test bacterial (microbial) culture over the first week (see EPA Protocol #01-1A) followed by testing in week 2.
# The testing involves inoculating the surface with bacteria, followed by application of the product on the substrate and allowing it to dry. The substrate may be glass, polycarbonate, or steel. This substrate is then subjected to an abrasion—re-inoculation regime of 3 “wear cycles”. The abrasion is conducted with a 1084 gwt. rectangular steel block covered with a cloth with an underlying thin polyurethane-foam layer. Each wear cycle is composed of a “dry” abrasion and a “wet” abrasion, the latter with the cloth cover having been wet with a mist of water using a Preval® sprayer. Each abrasion (dry/wet) is characterized by a back and forth motion of the block across the test substrate. Each abrasion cycle is followed by re-inoculation the surface with a bacterial culture. The RSS-12 h involves a 3-abrasion cycle/3-inoculations test as compared to the full RSS test that outlines a 6-abrasion cycle/6-inoculation test regimen. All other details of the test method are as outlined in the EPA Protocol #01-1A.
# The test substrate is allowed to dry overnight and then finally inoculated again (sanitizer test) for 5 minutes, followed by neutralization of the entire substrate. Surviving bacteria is then harvested off the surface and cultured with serial dilutions on agar plates, allowing colony formation over 24-48 hours. Surviving bacteria are then counted as the number of colonies. […] The bacteria in this test may be substituted for other microorganisms such as fungi or viruses. In an embodiment, microorganisms are selected from gram-positive bacteria (e.g Staphylococcus aureus), gram-negative bacteria (e.g. Enterobacter aerogenes), fungi, enveloped viruses, non-enveloped viruses, and combinations thereof.
# Films prepared from Formula C were evaluated using RSS-12 h protocol as described above, a modified version the residual self-sanitization (RSS) method, EPA Protocol #01-1A. Protocol #01-1A is a method approved by the EPA for measuring long-term sanitization claims (i.e., “kill later” durability claim). Protocol #01-1A, the entire contents of which are incorporated by reference, measures the residual self-sanitizing activity of dried chemical residues (films) on inanimate, hard, non-porous surfaces against bacteria: Staphylococcus aureus, Klebsiella pneumoniae, and/or Enterobacter aerogenes. In particular, surfaces are inoculated, treated with test product, allowed to dry, then abraded under alternating wet and dry conditions, which are interspersed with several re-inoculations. (FIG. 1).
# The test shown in Table 3 was conducted on a steel substrate (1 inch×1 inch) with Enterobacter aerogenes, a gram negative bacteria which is typically more resistant. […]
# Enterobacter aerogenes [2] = assay: RSS-24, EPA Protocol #01-1A residual self-sanitizing activity test (6 abrasion cycles); format: cell-based; details: Table 5, 150 microliters, stainless steel
# Experimental: In order to substantiate 24 hour long-term sanitization claims with the United States Environmental Protection Agency (EPA), compositions are evaluated with the residual self-sanitization (RSS) method, EPA Protocol #01-1A (https://www.epa.gov/sites/production/files/2015-09/documents/cloroxpcol_final.pdf). For validating longer term disinfection, all extant test protocols emulate the maximum amount of recontamination and abrasion by touching and wiping anticipated before reapplication, typically a 24 hour period. An intermediate protocol with approximately half the level abrasion and re-soiling challenge to a surface is presented here as the “RSS-12 h” test protocol. […]
# The test substrate is allowed to dry overnight and then finally inoculated again (sanitizer test) for 5 minutes, followed by neutralization of the entire substrate. […] Surviving bacteria are then counted as the number of colonies. […]
# Formula C was then further evaluated by (EPA) Protocol #01-1A residual self-sanitizing activity test with 6 alternating abrasion cycles (wet and dry each) for a 24 hour claim. […] When evaluated with 150 microliters of Formula C on a (1×1) steel substrate with Enterobacter aerogenes, >3 LR were achieved as required by the test (Table 5), indicating a pass for RSS-24.
# [3] = Table 4, reduced quat content, stainless steel
substance,measurement,setting,value
Triton X-100,Log,"Enterobacter aerogenes [1]; Table 3, log of surviving cfu, stainless steel",6.48
same,Avg. cfu/carrier,"Enterobacter aerogenes [1]; Table 3, stainless steel",3.00E+06 cfu/carrier
same,geom. mean,"Enterobacter aerogenes [1]; Table 3, stainless steel",6.48
same,Avg. cfu/carrier,Enterobacter aerogenes [1]; [3],1.29E+06 cfu/carrier
same,Log,Enterobacter aerogenes [1]; [3],6.11
same,avg. cfu/surface,"Enterobacter aerogenes [1]; stainless steel 1 inch x 1 inch, surviving population after final inoculation, triplicate",3.00E+06 cfu/surface
same,Avg. cfu/carrier,Enterobacter aerogenes [2],1.85E+07 cfu/carrier
same,Log,Enterobacter aerogenes [2],7.27
